Measurements taken from the supplement of paper PMC10307832.

Key:
Assay in all cases: relative viability (nuclei count vs DMSO), 5 days (fraction); higher = more cells survive
[1] = compound: C1=CC=C2C(=C1)C=CC(=C2SSC3=C(C=CC4=CC=CC=C43)O)O [IPA-3] + COc1cc2c(Oc3ccc(NC(=O)C4(C(=O)Nc5ccc(F)cc5)CC4)cc3F)ccnc2cc1OCCCN1CCOCC1 [Foretinib] (partner 0.25 µM)
Summary of the method: (§1)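 After 5 days of treatment, lung cancer cells in 1536-well plates were fixed and stained in a single step (final 0.05% Triton X-100, 1% formaldehyde, 1 ug/ml Hoechst) and their nuclei counted on 4× images. Treatment had been applied by pin tool the day after seeding as one drug alone or as a fixed anchor-drug dose with five library-drug doses (not always all listed) in √10 steps. Relative viability is the nuclei count of treated wells divided by that of vehicle wells, and values are medians of duplicate plates.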

[2] = compound: Cc1ccc(-n2nc(C(C)(C)C)cc2NC(=O)Nc2ccc(OCCN3CCOCC3)c3ccccc23)cc1 [Doramapimod] + COc1cc2c(Oc3ccc(NC(=O)C4(C(=O)Nc5ccc(F)cc5)CC4)cc3F)ccnc2cc1OCCCN1CCOCC1 [Foretinib] (partner 0.25 µM)
Summary of the method: as §1

[3] = compound: Cn1c(Nc2ccc(C(F)(F)F)cc2)nc2cc(Oc3ccnc(-c4ncc(C(F)(F)F)[nH]4)c3)ccc21 [RAF265] + CC(C)C[C@H](NC(=O)[C@H](Cc1ccccc1)NC(=O)c1cnccn1)B(O)O [Bortezomib] (partner 0.002 µM)
Summary of the method: as §1

[4] = compound: Cn1c(Nc2ccc(C(F)(F)F)cc2)nc2cc(Oc3ccnc(-c4ncc(C(F)(F)F)[nH]4)c3)ccc21 [RAF265] + CCNC(=O)c1noc(-c2cc(C(C)C)c(O)cc2O)c1-c1ccc(CN2CCOCC2)cc1 [Luminespib] (partner 0.01 µM)
Summary of the method: as §1

Cell Line	relative viability ([1]; first compound 0.2 µM)	relative viability ([1]; first compound 0.6325 µM)	relative viability ([1]; first compound 2 µM)	relative viability ([1]; first compound 6.325 µM)	relative viability ([1]; first compound 20 µM)	relative viability ([2]; first compound 0.02 µM)	relative viability ([2]; first compound 0.06325 µM)	relative viability ([2]; first compound 0.2 µM)	relative viability ([2]; first compound 0.6325 µM)	relative viability ([2]; first compound 2 µM)	relative viability ([3]; first compound 0.01 µM)	relative viability ([3]; first compound 0.03162 µM)	relative viability ([3]; first compound 0.1 µM)	relative viability ([3]; first compound 0.3162 µM)	relative viability ([3]; first compound 1 µM)	relative viability ([4]; first compound 0.01 µM)	relative viability ([4]; first compound 0.03162 µM)	relative viability ([4]; first compound 0.1 µM)	relative viability ([4]; first compound 0.3162 µM)	relative viability ([4]; first compound 1 µM)
NCI-H1666	0.988	0.926	0.976	1.01	1.16	0.948	1.05	1.02	1.08	0.971	1.09	0.809	0.935	0.977	0.595	1.11	1.01	1.1	1.05	0.977
NCI-H2170	1.03	0.942	1.04	0.948	1.13	0.996	0.985	1	1.05	1.01						0.791	0.658	0.688	0.254	0.381
NCI-H2342	1.11	1.04	1.15	1.19	1.3	0.91	1.03	0.975	1.29	1.13						0.713	0.68	0.685	0.577	0.519
LCLC-97TM1	0.958	0.928	0.915	0.861	0.958	0.842	1.02	0.895	0.94	0.819	0.253	0.671	0.492	0.181	0.238	0.819	0.67	0.632	0.309	0.306
NCI-H1299	1.1	1.07	1.17	0.678	1.06	1.07	1.09	1.15	1.04	1.01	1.04	1.02	1.05	0.969	0.741					
NCI-H3122	1.01	0.958	0.941	0.955	1.06	0.921	0.911	0.922	0.963	0.993	0.955	1.02	1.07	1.04	0.922	0.0828	0.0692	0.0932	0.0953	0.0538
NCI-H1395	1.07	0.901	0.98	0.934	1.02	0.948	0.925	0.991	0.991	0.933						0.633	0.726	0.7	0.658	0.509
NCI-H1944	1.05	0.856	0.879	0.938	0.928	0.782	0.918	0.883	0.957	0.715						0.858	0.71	0.726	0.529	0.332
Calu-6	1.01	0.95	0.96	0.808	0.932	0.903	0.914	0.941	0.942	0.919	0.919	0.819	0.834	0.473	0.368					
NCI-H1703	0.295	0.339	0.331	0.349	0.391	0.297	0.316	0.4	0.336	0.342	0.253	0.289	0.36	0.295	0.216					
NCI-H1792											0.985	0.889	0.905	0.837	0.574	0.46	0.528	0.379	0.317	0.148
NCI-H1623	0.97	0.899	0.878	0.815	0.923	0.95	0.791	0.86	0.743	0.746						0.608	0.48	0.63		0.33
HCC-366	0.929	0.851	0.911	0.833	0.856	0.617	0.874	0.899	0.876	0.821	1.11	1.02	1.06	1	0.985					
HCC-44											0.862	0.818	0.9	0.957	0.873	1.17	0.986	1.06	1.05	1.05
NCI-H522																0.984	1.26	1.27		0.957
SW 900	1.04	0.792	0.975	1.14	1.08	0.557	0.933	0.877	1.11	0.892						0.204	0.182	0.169	0.154	0.145
LK-2	1.25	1.31	1.3	1.63	1.5	1.04	1.04	0.919	1.05	0.925						0.172	0.227	0.196	0.236	0.191
SK-MES-1	0.982	0.889	0.892	0.953	1.22	0.965	0.864	0.773	1.04	0.816						0.726	0.414	0.33	0.228	0.191
NCI-H1793	0.918	0.67	0.656	0.757	1.05	0.618	0.752	0.822	0.865	0.597						0.212	0.147	0.184		0.222
IA-LM	1.24	0.989	1.16	1.05	1.23	0.933	1.04	1.11	1.17	0.729	0.77		0.805	0.593	0.548					
A549	0.988	0.927	1.01	0.884	1.21	0.91	1	0.992	1.06	0.875										
NCI-H358	0.815	0.622	0.713	0.732	0.721	0.579	0.563	0.682	0.826	0.63						0.28	0.21	0.231	0.166	0.126
